EP0314011A2, “Purine derivatives” (F. HOFFMANN-LA ROCHE AG, priority 1987, dated 1989)

Each compound was assayed on HTLV III (assay: Anti-HIV activity: p24 antigen capture assay in HTLV III-infected C8166 cells). Settings: concentration giving 50% protection; C8166 cells (human CD4+ T-lymphoblast line) infected with 10-fold TCD50 of virus; 72 h incubation at 37°C; viral protein 24 antigen in supernatant.
Assay type: cell-based
Protocol: Die Aktivität der Purinderivate der vorliegenden Erfindung gegen HIV kann wie folgt nachgewiesen werden.
In diesem Versuch verwendet man HTLV III, gezüchtet in C8166-Zellen (eine menschliche CD4⁺ T-Lymphoblastenlinie), RPM1 1640 Medium mit Bicarbonatpuffer, Antibiotika und l0%igem fötalem Rinderserum. Eine Zellensuspension wird mit der 10-fachen TCD₅₀ des Virus infiziert. Man lässt 90 Minuten bei 37°C adsorbieren. Die Zellen werden mit dem Medium gewaschen. Der Versuch wird in 6 ml Gewebekulturröhrchen durchgeführt. Jedes Röhrchen enthält 2 x 10⁵ infizierte Zellen in 1,5 ml Medium. Es werden 15 µl einer Lösung der Substanz in wässrigem Medium oder in DMSO zugesetzt. Nach 72 Stunden Inkubation bei 37°C in einer feuchten 5% CO₂ enthaltenden Atmosphäre werden die Kulturen zentrifugiert. Ein aliquoter Teil des Ueberstandes wird solubilisiert und einem Antigenabfangversuch unterworfen unter Verwendung eines primären Antiserums mit besonderer Reaktivität gegen virales Protein 24 und eines Meerrettich-Peroxidase-Detektionssystems. Die Farbenerzeugung wird spektrophotometrisch gemessen und in Abhängigkeit der Konzentration der Testsubstanz dargestellt. Die einen 50%igen Schutz erzeugende Konzentration (IC₅₀) wird ermittelt. Die Resultate sind in der folgenden Tabelle angegeben: […]

In order of rising IC50:
1. Nc1nc(Cl)nc2c1ncn2[C@@H]1O[C@H](CO)C[C@@H]1F [Beispiel 1, 6-Amino-2-chlor-9-(2,3-dideoxy-2-fluor-β-D-threopentofuranosyl)-9H-purin]  1000 nM
2. Nc1nc(N)c2ncn([C@@H]3O[C@H](CO)C[C@@H]3F)c2n1 [Beispiel 3, 2,6-Diamino-9-(2,3-dideoxy-2-fluor-β-D-threopentofuranosyl)-9H-purin]  1000 nM
3. [N-]=[N+]=Nc1nc(N)c2ncn([C@@H]3O[C@H](CO)C[C@@H]3F)c2n1 [Beispiel 2, 6-Amino-2-azido-9-(2,3-dideoxy-2-fluor-β-D-threopentofuranosyl)-9H-purin]  10000 nM
